How the values were obtained:
CYP3A = experiment: In vitro drug-drug interaction studies: CYP3A inhibition; type: in vitro ADME; details: based upon in vitro studies
OATP2B1 = molecular target: T1, OATP2B1 (Homo sapiens, UniProt O94956); experiment: In vitro drug-drug interaction studies: OATP2B1 transporter inhibition; type: in vitro ADME; details: based upon in vitro studies
T1 sequence (O94956 1-709): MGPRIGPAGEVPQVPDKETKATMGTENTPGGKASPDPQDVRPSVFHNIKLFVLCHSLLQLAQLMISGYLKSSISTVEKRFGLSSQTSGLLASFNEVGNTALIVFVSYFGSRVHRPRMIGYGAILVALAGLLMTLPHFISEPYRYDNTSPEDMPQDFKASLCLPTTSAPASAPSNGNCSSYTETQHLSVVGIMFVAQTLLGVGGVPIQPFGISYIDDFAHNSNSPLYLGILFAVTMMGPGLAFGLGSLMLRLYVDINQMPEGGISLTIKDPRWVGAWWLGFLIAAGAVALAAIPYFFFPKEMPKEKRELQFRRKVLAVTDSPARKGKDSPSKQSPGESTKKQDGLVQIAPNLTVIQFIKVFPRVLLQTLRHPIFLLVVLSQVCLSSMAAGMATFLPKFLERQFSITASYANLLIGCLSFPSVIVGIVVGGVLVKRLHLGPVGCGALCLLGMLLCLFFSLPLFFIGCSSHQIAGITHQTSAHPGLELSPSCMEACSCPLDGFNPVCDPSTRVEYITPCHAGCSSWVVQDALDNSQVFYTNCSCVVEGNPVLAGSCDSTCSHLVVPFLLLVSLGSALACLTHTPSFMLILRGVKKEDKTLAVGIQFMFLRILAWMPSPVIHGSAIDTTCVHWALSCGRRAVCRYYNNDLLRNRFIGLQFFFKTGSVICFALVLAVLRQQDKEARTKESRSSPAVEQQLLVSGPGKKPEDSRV

BCRP = molecular target: T2, BCRP (Homo sapiens, UniProt Q9UNQ0); experiment: In vitro drug-drug interaction studies: BCRP transporter inhibition; type: in vitro ADME; details: based upon in vitro studies
T2 sequence (Q9UNQ0 1-655): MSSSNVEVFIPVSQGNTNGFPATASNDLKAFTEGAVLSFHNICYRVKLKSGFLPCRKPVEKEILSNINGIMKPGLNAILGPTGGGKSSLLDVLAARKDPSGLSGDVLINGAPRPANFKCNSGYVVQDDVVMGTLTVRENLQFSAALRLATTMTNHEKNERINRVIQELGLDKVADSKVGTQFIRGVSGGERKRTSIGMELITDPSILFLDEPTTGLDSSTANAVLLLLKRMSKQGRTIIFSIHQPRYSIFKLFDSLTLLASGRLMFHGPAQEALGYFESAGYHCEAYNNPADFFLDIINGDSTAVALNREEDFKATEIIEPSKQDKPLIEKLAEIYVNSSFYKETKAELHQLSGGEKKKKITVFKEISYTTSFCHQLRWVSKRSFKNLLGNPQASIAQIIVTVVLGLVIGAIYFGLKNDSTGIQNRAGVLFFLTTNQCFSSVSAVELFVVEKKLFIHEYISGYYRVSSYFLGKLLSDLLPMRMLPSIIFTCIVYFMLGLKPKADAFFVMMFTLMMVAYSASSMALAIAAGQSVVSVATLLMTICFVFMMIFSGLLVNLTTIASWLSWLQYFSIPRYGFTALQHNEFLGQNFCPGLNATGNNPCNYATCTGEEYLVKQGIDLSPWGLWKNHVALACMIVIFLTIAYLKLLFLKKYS

[1] = Phase I first-in-human study: safety, tolerability and PK of single and multiple doses in healthy volunteers; type: in vivo; details: for AUC(0-t): human, estimated from AUC0-∞ at single dose of 125 mg in phase 1 study Part 3
Method: The study was conducted in 3 parts: single-ascending doses (Part 1A), multiple-ascending doses (Part 2), and formulation assessment (Part 1B and Part 3).

P-gp = P-gp (Homo sapiens, UniProt P08183); experiment: In vitro drug-drug interaction studies: P-gp transporter inhibition; type: in vitro ADME; details: based upon in vitro studies
Chain of P-gp (P08183 whole entry): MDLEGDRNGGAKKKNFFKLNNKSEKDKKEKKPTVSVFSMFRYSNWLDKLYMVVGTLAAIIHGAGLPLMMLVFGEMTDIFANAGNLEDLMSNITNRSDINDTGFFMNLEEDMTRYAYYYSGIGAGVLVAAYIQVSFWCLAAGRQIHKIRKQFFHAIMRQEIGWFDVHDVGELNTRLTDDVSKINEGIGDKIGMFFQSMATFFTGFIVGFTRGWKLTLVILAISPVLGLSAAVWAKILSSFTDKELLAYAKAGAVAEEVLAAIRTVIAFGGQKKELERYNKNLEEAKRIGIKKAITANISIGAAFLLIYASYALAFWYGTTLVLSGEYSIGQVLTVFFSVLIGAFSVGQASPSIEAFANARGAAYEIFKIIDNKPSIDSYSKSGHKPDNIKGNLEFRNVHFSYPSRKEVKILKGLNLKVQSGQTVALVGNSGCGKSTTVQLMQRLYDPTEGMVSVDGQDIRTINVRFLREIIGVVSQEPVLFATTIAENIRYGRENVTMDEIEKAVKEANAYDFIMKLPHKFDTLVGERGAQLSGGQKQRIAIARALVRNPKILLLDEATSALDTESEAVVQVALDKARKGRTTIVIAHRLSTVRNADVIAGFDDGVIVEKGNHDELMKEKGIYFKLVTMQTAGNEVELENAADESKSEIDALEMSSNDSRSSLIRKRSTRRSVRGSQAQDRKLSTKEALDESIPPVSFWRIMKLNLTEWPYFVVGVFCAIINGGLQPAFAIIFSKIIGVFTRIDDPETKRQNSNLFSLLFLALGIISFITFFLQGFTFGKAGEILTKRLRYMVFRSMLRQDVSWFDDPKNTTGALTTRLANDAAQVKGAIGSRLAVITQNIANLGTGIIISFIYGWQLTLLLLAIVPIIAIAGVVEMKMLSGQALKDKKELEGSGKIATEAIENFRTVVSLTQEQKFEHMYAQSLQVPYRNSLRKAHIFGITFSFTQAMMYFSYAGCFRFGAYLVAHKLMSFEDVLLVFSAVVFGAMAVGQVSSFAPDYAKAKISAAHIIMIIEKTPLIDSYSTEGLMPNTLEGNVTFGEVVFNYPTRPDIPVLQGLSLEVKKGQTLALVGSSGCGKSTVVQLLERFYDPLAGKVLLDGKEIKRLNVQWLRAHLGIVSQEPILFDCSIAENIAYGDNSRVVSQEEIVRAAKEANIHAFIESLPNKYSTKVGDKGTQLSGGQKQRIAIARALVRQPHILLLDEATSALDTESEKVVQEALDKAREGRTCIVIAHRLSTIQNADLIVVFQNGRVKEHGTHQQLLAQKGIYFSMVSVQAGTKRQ

[2] = Yan et al. ASCPT 2021 poster, cited from earlier work
monkeys = experiment: Repeat-dose toxicity studies in monkeys (up to 9-month); type: in vivo
[3] = as above; type: in vivo; details: monkey, in vivo
CYP2C9 = CYP2C9 (Homo sapiens, UniProt P11712); experiment: In vitro drug-drug interaction studies: CYP2C9 inhibition; type: in vitro ADME; details: based upon in vitro studies
Chain of CYP2C9 (P11712 whole entry): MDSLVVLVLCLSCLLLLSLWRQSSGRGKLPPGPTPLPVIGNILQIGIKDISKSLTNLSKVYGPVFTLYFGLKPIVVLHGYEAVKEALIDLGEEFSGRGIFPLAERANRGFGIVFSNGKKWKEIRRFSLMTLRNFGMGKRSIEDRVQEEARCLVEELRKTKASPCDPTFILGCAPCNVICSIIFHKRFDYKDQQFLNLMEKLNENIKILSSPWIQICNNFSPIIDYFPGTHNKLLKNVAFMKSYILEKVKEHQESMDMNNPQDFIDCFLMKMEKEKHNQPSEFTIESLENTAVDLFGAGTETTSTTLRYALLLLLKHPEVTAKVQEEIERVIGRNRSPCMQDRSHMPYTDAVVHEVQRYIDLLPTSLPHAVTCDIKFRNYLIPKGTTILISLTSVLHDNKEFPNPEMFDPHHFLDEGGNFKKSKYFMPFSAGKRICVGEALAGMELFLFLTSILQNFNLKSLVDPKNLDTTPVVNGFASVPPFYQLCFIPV

OCT1 = molecular target: T3, OCT1 (Homo sapiens, UniProt O15245); experiment: In vitro drug-drug interaction studies: OCT1 transporter inhibition; type: in vitro ADME; details: based upon in vitro studies
T3 sequence (O15245 1-554): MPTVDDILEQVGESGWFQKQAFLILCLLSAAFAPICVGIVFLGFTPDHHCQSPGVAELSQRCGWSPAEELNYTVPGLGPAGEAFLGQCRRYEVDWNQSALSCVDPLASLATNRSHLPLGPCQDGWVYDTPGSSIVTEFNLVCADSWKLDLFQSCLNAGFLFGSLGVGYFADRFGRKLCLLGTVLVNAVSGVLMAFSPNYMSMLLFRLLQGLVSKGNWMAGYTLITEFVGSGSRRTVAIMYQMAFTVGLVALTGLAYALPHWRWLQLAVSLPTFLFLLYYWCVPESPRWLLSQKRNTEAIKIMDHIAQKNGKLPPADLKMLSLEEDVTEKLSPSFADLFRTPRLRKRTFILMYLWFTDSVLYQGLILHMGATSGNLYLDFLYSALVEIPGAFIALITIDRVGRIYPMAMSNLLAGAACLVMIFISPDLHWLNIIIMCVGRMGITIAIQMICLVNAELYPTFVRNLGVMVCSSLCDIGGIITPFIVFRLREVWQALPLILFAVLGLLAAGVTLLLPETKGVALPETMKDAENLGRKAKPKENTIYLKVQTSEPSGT

[4] = 6-month repeat-dose toxicity study in rats; type: in vivo; details: rat, in vivo, po, 1000 mg/kg/day
rats = experiment: 6-month repeat-dose toxicity study in rats; type: in vivo
rabbits = experiment: Rabbit embryofetal development study; type: in vivo
[5] = Rabbit embryofetal development study; type: in vivo; details: female, rabbit, in vivo, po; plasma toxicokinetics on Gestational Day 19, 120 mg/kg/day; read-out: AUC0-24 at rabbit EFD NOEL
[6] = AUC in animals/(predicted) AUC in humans

SMILES: CN1C(=O)[C@@H](NC(=O)c2n[nH]c(Cc3ccccc3)n2)COc2ccc(C#CC(C)(C)O)cc21 [Compound I, (S)-5-benzyl-N-(7-(3-hydroxy-3-methylbut-1-yn-1-yl)-5-methyl-4-oxo-2,3,4,5-tetrahydrobenzo[b][1,4]oxazepin-3-yl)-1H-1,2,4-triazole-3-carboxamide]
- inhibition of drugs metabolized by CYP3A (CYP3A): may inhibit
- inhibition of substrates of OATP2B1 transporter (OATP2B1): may also inhibit
- inhibition of substrates of BCRP transporter (BCRP): may also inhibit
- Exposure versus dose ([1]; dose range of 12 to 1000 mg): increased in a proportional manner
- AUC(0-t) ([1]; plasma, oral, 0.7 mg/kg/day, read-out: AUC0-24, human dose 50 mg): 16 µg·h/mL
- AUC(0-t) ([1]; plasma, oral, 1.8 mg/kg/day, read-out: AUC0-24, human dose 125 mg): 40.1 µg·h/mL
- half-life ([1]; plasma, oral, human subjects): 13 to 15 h
- inhibition of substrates of P-gp transporter (P-gp): may also inhibit
- safety and tolerability ([2]; following single and multiple doses): generally safe, and well tolerated
- pharmacokinetics linearity ([2]; tested dose range up to 1000 mg): linear pharmacokinetics
- Margin of Safety, monkey NOAEL vs human 50 mg (monkeys; [6]): 17 X
- Margin of Safety, monkey NOAEL vs human 125 mg (monkeys; [6]): 7 X
- doses with mortality related to secondary infections (monkeys; monkeys, toxicology studies up to 9 months): ≥ 250 mg/kg/day
- NOAEL at 9 months [3]: 150 mg/kg
- AUC(0-t) ([3]; po, plasma toxicokinetics on Day 273, 150 mg/kg/day, read-out: AUC0-24 at monkey NOAEL): 278 µg·h/mL
- inhibition of drugs metabolized by CYP2C9 (CYP2C9): may inhibit
- inhibition of substrates of OCT1 transporter (OCT1): may also inhibit
- AUC(0-t) [4]: 1080 µg·h/mL
- Margin of Safety, rat NOAEL vs human 50 mg (rats; [6]): 67 X
- Margin of Safety, rat NOAEL vs human 125 mg (rats; [6]): 27 X
- toxicology findings in rats (rats; toxicology studies up to 6 months): minimal effects
- Margin of Safety, rabbit EFD NOEL vs human 50 mg (rabbits; [6]): 29 X
- Margin of Safety, rabbit EFD NOEL vs human 125 mg (rabbits; [6]): 12 X
- developmental and reproductive toxicology outcome, rabbits (rabbits; concerns for women of childbearing potential): did not reveal any concerns
- Rabbit EFD NOEL dose (rabbits; rabbit embryofetal development study): 120 mg/kg/day
- AUC(0-t) [5]: 464 µg·h/mL

— patent US20250000872A1, “FORMULATIONS AND DOSING REGIMENS FOR RIP1 KINASE INHIBITORS FOR TREATING AUTOIMMUNE AND INFLAMMATORY DISEASES” (Eli Lilly and Company, priority 2023, published 2025)
